# Experiments:
# [1] = system: Spodoptera eridania, 3rd instar larvae, southern armyworm; experiment: Southern armyworm 7-day residual test; type: in vivo; conditions: R designates Residual: 7-day residual foliage, concentration not given
# Method in brief: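 Third-instar southern armyworm larvae were exposed to lima bean foliage that had been treated, then held 7 days under greenhouse lamps simulating bright sun for 14 h per day. Treatment solutions were diluted in water from a 10,000 ppm stock in 35% acetone. Results are scale ratings.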
# [2] = system: Empoasca abrupta, adult, western potato leafhopper; experiment: Western potato leafhopper contact test, dipped limabean leaf; type: in vivo; design: key: 0: no effect; 10-25% kill; 26-35% kill; 36-45% kill; 46-55% kill; 56-65% kill; 66-75% kill; 76-85% kill; 86-99% kill; 9: 100% kill
# Experimental: (§1) Test solutions are prepared by dissolving the test compound in a 35% acetone in water mixture to give a concentration of 10,000 ppm. Subsequent dilutions are made with water as needed.
# Empoasca abrupta, adult, western potato leafhopper
# A Sieva limabean leaf about 5 cm long is dipped in the test solution for 3 seconds with agitation and placed in a hood to dry. The treated leaf is placed in a 100 x 10 mm petri dish containing a moist filter paper and about 10 adult leafhoppers are added. After 2 days, mortality counts are made.
# (§2) All of the above tests are rated according to the rating scale shown below.
# [3] = system: Spodoptera eridania, 3rd instar larvae, southern armyworm; experiment: Southern armyworm 3rd instar test, dipped limabean leaf; type: in vivo; conditions: for ARMYWORM Day 3: rating at 3 days; for ARMYWORM Day 5: rating at 5 days
# Method in brief: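 Ten 3rd instar larvae fed on limabean leaves that had been dipped for 3 s in test solution and dried. Test solutions were diluted in water from a 10,000 ppm stock in 35% acetone/water. Ratings at days 3 and 5 covered death, feeding reduction and abnormal molting.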
# [4] = system: Aphis fabae, mixed instar, bean aphid; experiment: Bean aphid spray test on nasturtium; type: in vivo; design: key: 0: no effect; 10-25% kill; 26-35% kill; 36-45% kill; 46-55% kill; 56-65% kill; 66-75% kill; 76-85% kill; 86-99% kill; 9: 100% kill; conditions: 100 ppm
# Experimental: as §1
# Aphis fabae, mixed instar, bean aphid
# Pots containing single nasturtium plants (Tropaeolum sp.) about 5 cm tall are infested with about 100-200 aphids one day prior to treatment. Each pot is sprayed with the test solution for 2 revolutions of a 4 rpm turntable in a hood, using a #154 DeVilbiss atomizer. The spray tip is held about 15 cm from the plant and the spray directed so as to give complete coverage of the plants and the aphids. The sprayed pots are set on their sides on white enamel trays and mortality estimates are made after 2 days.
# as §2
# [5] = system: Empoasca abrupta, adult, western potato leafhopper; experiment: Western potato leafhopper systemic uptake test; type: in vivo; design: key: 0: no effect; 10-25% kill; 26-35% kill; 36-45% kill; 46-55% kill; 56-65% kill; 66-75% kill; 76-85% kill; 86-99% kill; 9: 100% kill; conditions: 100 ppm
# Experimental: Empoasca abrupta, adult, western potato leafhopper Systemic Uptake
# An emulsion containing 0.1 gm of the test material, 0.2 gm of Emulphor EL-620® emulsifier, 10 mL of acetone and 90 mL of water is prepared and diluted 10-fold with water to give a 100 ppm emulsion. Subsequent 10-fold dilutions are made with water as needed. Sieva limabean plants, with the primary leaves expanded to a length of 7-8 cm, are cut off at least 3 cm above the soil level to avoid contamination with soil bacteria which will cause decay of the stem during the test. The cut stem is placed in the test emulsion and wrapped with a bit of cotton to hold the stem off the bottom of the bottle and to limit evaporation. The treated stem is maintained for 3 days at 27°C to allow the test compound to be taken up into the plant. Following this, one leaf is removed from the plant and placed in a 100 x 10 mm petri dish containing a moist filter paper and about 10 adult leafhoppers as described above. Mortality counts are made after 2 days.
# as §2
# [6] = system: Tetranychus urticae (OP-resistant strain), 2-spotted spider mite; experiment: 2-spotted spider mite test, dipped infested limabean plants; type: in vivo; design: key: 0: no effect; 10-25% kill; 26-35% kill; 36-45% kill; 46-55% kill; 56-65% kill; 66-75% kill; 76-85% kill; 86-99% kill; 9: 100% kill; conditions: for OP-RESISTANT MITES Egg: mite eggs
# Experimental: as §1
# Tetranychus urticae (OP-resistant strain), 2-spotted spider mite
# Sieva limabean plants with primary leaves expanded to 7-8 cm are selected and cut back to one plant per pot. A small piece is cut from an infested leaf taken from the main colony and placed on each leaf of the test plants. This is done about 2 hours before treatment to allow the mites to move over to the test plant and to lay eggs. The size of the cut, infested leaf is varied to obtain about 100 mites per leaf. At the time of test treatment, the piece of leaf used to transfer the mites is removed and discarded. The newly mite-infested plants are dipped in the test solution for 3 seconds with agitation and set in the hood to dry. After 2 days one leaf is removed and mortality counts are made. After 5 days, another leaf is removed and observations are made of mortality of the eggs and/or newly emerged nymphs.
# as §2
# [7] = system: Spodoptera eridania, 3rd instar larvae, southern armyworm; experiment: Southern armyworm systemic uptake (stem systemic) test; type: in vivo; design: key: 0: no effect; 10-25% kill; 26-35% kill; 36-45% kill; 46-55% kill; 56-65% kill; 66-75% kill; 76-85% kill; 86-99% kill; 9: 100% kill; conditions: cut stem in emulsion 3 days
# [8] = system: Heliothis virescens, egg, tobacco budworm; experiment: Tobacco budworm egg test, dipped cotton leaf and eggs; type: in vivo; design: key: 0: no effect; 10-25% kill; 26-35% kill; 36-45% kill; 46-55% kill; 56-65% kill; 66-75% kill; 76-85% kill; 86-99% kill; 9: 100% kill; conditions: mortality rating after 3 days
# Method in brief: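 Scoring is by mortality counts after 3 days, graded on a rating scale. Tobacco budworm eggs (6-30 h old) on cheesecloth and a young cotton leaf were each dipped about 3 s in the test suspension. Suspensions were made from a 10,000 ppm stock in 35% acetone/water with further water dilutions.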
# [9] = system: Diabrotic undecimpunctata howardi, 3rd instar southern corn rootworm; experiment: Southern corn rootworm soil test; type: in vivo; design: key: 0: no effect; 10-25% kill; 26-35% kill; 36-45% kill; 46-55% kill; 56-65% kill; 66-75% kill; 76-85% kill; 86-99% kill; 9: 100% kill; conditions: mortality rating after 6 days
# Method in brief: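 Soil test with ten 3rd instar larvae per jar, mortality read after 6 days and missing larvae counted as dead; scores on a rating scale. Doses were 1.25 and 0.25 mg a.i. per jar, corresponding to roughly 50 and 10 kg/ha, loaded on talc from acetone and mixed into moist soil with millet seed as food.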
# [10] = system: Heliothis virescens, 3rd instar tobacco budworm; experiment: Tobacco budworm 3rd instar test, dipped cotton cotyledons; type: in vivo; design: key: 0: no effect; 10-25% kill; 26-35% kill; 36-45% kill; 46-55% kill; 56-65% kill; 66-75% kill; 76-85% kill; 86-99% kill; 9: 100% kill; conditions: mortality rating after 3 days
# Experimental: as §1
# Heliothis virescens, 3rd instar tobacco budworm
# Cotton cotyledons are dipped in the test solution and allowed to dry in a hood. When dry, each is cut into quarters and ten sections are placed individually in 30 mL plastic medicine cups containing a 5-7mm long piece of damp dental wick. One 3rd instar caterpillar is added to each cup and the cup is sealed with MYLAR® film. Treatments are maintained for 3 days before a mortality count and observation of reduction in feeding damage are made.
# as §2
# [11] = system: Erysiphe graminis, tritici; experiment: In vivo fungicidal activity, Wheat Powdery Mildew (WPM); conditions: rating, averaged
# Experimental: (§3) Test compounds are dissolved in acetone and diluted with deionized water containing about 0.05% TWEEN 20®, a polyoxyethylene sorbitan monolaurate surfactant manufactured by Atlas Chemical Industries, to give a concentration of 400 ppm. Subsequent dilutions are made with an 0.05% aqueous solution of TWEEN 20®.
# (§4) Host plants are sprayed with test solution, dried and inoculated with fungi. When disease symptom development is optimal, the plants are rated for disease control according to the rating scale shown below. Each test contains inoculated treated plants, inoculated untreated plants and a reference standard.
# (§5) When more than one test is run, the data are averaged.
# [12] = system: Plasmopara viticola; experiment: In vivo fungicidal activity, Grape Downy Mildew (GDM); conditions: rate 400 ppm, rating, averaged
# Experimental: as §3, §4, §5
# [13] = system: Puccinia recondita, tritici; experiment: In vivo fungicidal activity, Wheat Leaf Rust (WLR); conditions: rate 400 ppm, rating, averaged
# Experimental: as §3, §4, §5
# [14] = system: Cercospora beticola; experiment: In vivo fungicidal activity, Sugarbeet Cercospora (SBC); conditions: rate 400 ppm, rating, averaged
# Experimental: as §3, §4, §5
# [15] = system: Venturia inaequalis; experiment: In vivo fungicidal activity, Apple Scab (AS); conditions: rate 400 ppm, host plants sprayed then inoculated, rating, averaged
# Experimental: as §3, §4, §5
# [16] = 100 ppm, contact, rating scale 0-9
# [17] = systemic uptake, rating scale 0-9
# [18] = 300 ppm, mite nymphs, rating scale 0-9
compound,measurement,setting,value
CN(C)C(=S)SCn1c(-c2ccc(Cl)c(Cl)c2)c(Br)c(C(F)(F)F)c1C(F)(F)F [Example 33],ARMYWORM Day 3 R,[1]; rating at 3 days,9 (100% kill)
same,ARMYWORM Day 5 R,[1]; rating at 5 days,9 (100% kill)
same,LEAFHOPPER Contact,"[2]; 10 ppm, contact, rating scale 0-9",0
same,LEAFHOPPER Contact,[2]; [16],8 (86-99% kill)
same,ARMYWORM Day 3,[3]; 10 ppm,9 (100% kill)
same,ARMYWORM Day 5,[3]; 10 ppm,9 (100% kill)
same,ARMYWORM Day 3,[3]; 100 ppm,9 (100% kill)
same,ARMYWORM Day 5,[3]; 100 ppm,9 (100% kill)
same,ARMYWORM Day 3,[3]; 1000 ppm,9 (100% kill)
same,ARMYWORM Day 5,[3]; 1000 ppm,9 (100% kill)
same,APHIDS,[4]; rating scale 0-9,0
same,LEAFHOPPER Systemic,[5]; [17],0
same,OP-RESISTANT MITES Adult,"[6]; 10 ppm, rating scale 0-9",0
same,OP-RESISTANT MITES Egg,"[6]; 10 ppm, rating scale 0-9",0
same,OP-RESISTANT MITES Nymph,"[6]; 10 ppm, mite nymphs, rating scale 0-9",0
same,OP-RESISTANT MITES Adult,"[6]; 100 ppm, rating scale 0-9",0
same,OP-RESISTANT MITES Egg,"[6]; 100 ppm, rating scale 0-9",8 (86-99% kill)
same,OP-RESISTANT MITES Nymph,"[6]; 100 ppm, mite nymphs, rating scale 0-9",0
same,OP-RESISTANT MITES Adult,"[6]; 300 ppm, rating scale 0-9",7 (76-85% kill)
same,OP-RESISTANT MITES Egg,"[6]; 300 ppm, rating scale 0-9",0
same,OP-RESISTANT MITES Nymph,[6]; [18],0
same,ARMYWORM Stem Sys,[7],0
same,TOBACCO BUDWORM Egg,[8]; 1000 ppm,0
CC(=O)SCn1c(Br)c(Br)c(C#N)c1Br [Example 34],LEAFHOPPER Contact,[2]; [16],0
same,APHIDS,[4]; rating scale 0-9,8 (86-99% kill)
same,LEAFHOPPER Systemic,[5]; [17],0
same,OP-RESISTANT MITES Adult,"[6]; 300 ppm, rating scale 0-9",0
same,OP-RESISTANT MITES Egg,"[6]; 300 ppm, rating scale 0-9",0
same,OP-RESISTANT MITES Nymph,[6]; [18],0
same,SOUTHERN CORN ROOTWORM,[9]; 50 (ppm as headed),0
same,ARMYWORM Stem Sys,[7],0
same,TOBACCO BUDWORM 3rd Instar,[10]; 100 ppm,0
same,TOBACCO BUDWORM 3rd Instar,[10]; 1000 ppm,9 (100% kill)
same,TOBACCO BUDWORM Egg,[8]; 1000 ppm,8 (86-99% kill)
N#Cc1c(Cl)c(C(F)(F)F)n(CSC(=N)N)c1-c1ccc(Cl)cc1 [Example 3],LEAFHOPPER Contact,"[2]; 10 ppm, mortality rating after 2 days",9 (100% kill)
same,LEAFHOPPER Contact,"[2]; 100 ppm, mortality rating after 2 days",9 (100% kill)
same,ARMYWORM Day 5,[3]; 10 ppm,9 (100% kill)
same,ARMYWORM Day 5,[3]; 100 ppm,9 (100% kill)
same,ARMYWORM Day 5,[3]; 1000 ppm,9 (100% kill)
same,APHIDS,"[4]; spray, mortality rating after 2 days",0
same,LEAFHOPPER Systemic,"[5]; cut stem in emulsion 3 days, mortality rating after 2 days",0
same,OP-RESISTANT MITES Nymph,"[6]; 10 ppm, rating after 5 days",0
same,OP-RESISTANT MITES Nymph,"[6]; 300 ppm, rating after 5 days",9 (100% kill)
same,SOUTHERN CORN ROOTWORM,[9]; 1 (ppm as headed),0
same,SOUTHERN CORN ROOTWORM,[9]; 10 (ppm as headed),0
same,SOUTHERN CORN ROOTWORM,[9]; 50 (ppm as headed),9 (100% kill)
same,ARMYWORM Stem Sys,[7],0
same,TOBACCO BUDWORM Egg,[8]; 100 ppm,0
same,TOBACCO BUDWORM Egg,[8]; 1000 ppm,5 (56-65% kill)
"CC(C)OP(=S)(OC(C)C)SCn1c(Br)c(Br)c(C#N)c1Br [O,O-diisopropyl S-(2,3,5-tribromo-4-cyanopyrrole-1-yl)methyl ester phosphorodithioic acid]",Disease Control WPM,[11]; rate 25 ppm,0 (0)
same,Disease Control WPM,[11]; rate 100 ppm,4.0
same,Disease Control WPM,[11]; rate 400 ppm,7.0
same,Disease Control GDM,[12],0 (0)
same,Disease Control WLR,[13],0 (0)
same,Disease Control SBC,[14],0 (0)
same,Disease Control AS,[15],0 (0)

# Source: patent EP0545103A1, “Insecticidal, acaricidal and molluscicidal 1-(substituted) thioalkylpyrroles” (priority 1991, dated 1993)
